{
  "source": "patent US20120201762A1",
  "about": "“ORAL CARE COMPOSITION” (COLGATE-PALMOLIVE COMPANY, priority 2009, published 2012)",
  "key": {"[1]": {"tested_on": "VSC in whole saliva", "assay": "Reduction of VSC in whole saliva incubated overnight with cysteine and an amino acid (GC)", "conditions": "for VSC Reduction (%): relative to saliva and cysteine alone, 10% of 0.1% amino acid solution added to 50% whole saliva, overnight incubation; for Effect on VSC in saliva (in words): whole saliva with cysteine", "description": "The effect of serine and other amino acids on VSC was tested. Whole saliva was incubated overnight with cysteine and an additional amino acid selected from serine, proline, tyrosine, glycine, aspargine, glutamic acid, and histidine. In this experiment, 10% of 0.1% amino acid solution was added to 50% whole saliva. GC measurements were made for VSC."}, "[2]": {"tested_on": "indole in whole saliva", "assay": "Reduction of indole in whole saliva incubated with tryptophan and serine (hexanes extraction, GC)", "conditions": "whole saliva with tryptophan 0.14%; for Area Under the Curve (AUC), indole by GC: overnight at 37° C., control without serine 642403", "description": "The effect of serine on indole was tested. Whole saliva with tryptophan (0.14%) and various concentrations of serine was incubated overnight at 37° C. After 24 h, the samples were allowed to cool to 25° C. The samples were extracted with hexanes and the organic layer was used for GC quantification."}, "[3]": {"tested_on": "VSC in whole saliva", "assay": "Headspace VSC in whole saliva incubated with zinc lactate with and without serine (GC)", "conditions": "zinc lactate 0.16%", "description": "The effect of zinc lactate and serine on VSC was tested. Whole saliva with tryptophan (0.14%), zinc lactate (0.16%), and when necessary, serine (0.42%), was incubated overnight at 37° C. After 24 h, the samples were allowed to cool to 25° C. The samples were then quantified for headspace VSC using a GC."}, "[4]": {"tested_on": "indole in whole saliva", "assay": "Indole production in whole saliva incubated with tryptophan, zinc lactate with and without serine (GC)", "conditions": "for Indole (ppm): serine 0.42% where present, whole saliva with tryptophan 0.14%, overnight at 37° C.", "description": "The effect of zinc lactate and serine on indole was tested. Whole saliva with tryptophan (0.14%), various concentrations of zinc lactate, and when necessary, serine (0.42%), was incubated overnight at 37° C. After 24 h, the samples were allowed to cool to 25° C. The samples were extracted with hexanes (2 mL) and the organic layer (1 mL) was used for GC quantification."}},
  "data": [
    {"compound": "NC(=O)C[C@H](N)C(=O)O", "note": "[Asparagine]", "values": [
      {"measurement": "VSC Reduction (%)", "setting": "[1]", "value": "−2.14", "unit": "%"}
    ]},
    {"compound": "N[C@@H](CO)C(=O)O", "note": "[Serine, (2S)-2-amino-3-hydroxypropanoic acid]", "values": [
      {"measurement": "VSC Reduction (%)", "setting": "[1]", "value": 36.56, "unit": "%"},
      {"measurement": "Effect on VSC in saliva (in words)", "setting": "[1]", "value": "greatest percent reduction of VSC"},
      {"measurement": "Effect on VSC in saliva (in words)", "setting": "[1]; listed as serine", "value": "able to reduce VSC in saliva"},
      {"measurement": "Area Under the Curve (AUC), indole by GC", "setting": "[2]; serine 0.21%", "value": 584720},
      {"measurement": "Area Under the Curve (AUC), indole by GC", "setting": "[2]; serine 0.42%", "value": 532053},
      {"measurement": "Area Under the Curve (AUC), indole by GC", "setting": "[2]; serine 0.84%", "value": 542136},
      {"measurement": "Effect on amount of indole in saliva (in words)", "setting": "[2]", "value": "able to reduce amount of indole in saliva"},
      {"measurement": "Effect of serine added to zinc lactate on VSC production (in words)", "setting": "[3]; serine 0.42%", "value": "enhances the effect of zinc lactate and reduces VSC production"},
      {"measurement": "Effect of serine added to zinc lactate on indole production (in words)", "setting": "[4]; various concentrations of zinc lactate, serine 0.42%", "value": "enhances the effect of zinc lactate and reduces indole production"}
    ]},
    {"compound": "N[C@@H](CCC(=O)O)C(=O)O", "note": "[Glutamic acid, glutamic acid]", "values": [
      {"measurement": "VSC Reduction (%)", "setting": "[1]", "value": "−5.2", "unit": "%"}
    ]},
    {"compound": "CC(O)C(=O)[O-].CC(O)C(=O)[O-].[Zn+2]", "note": "(stereo not shown) [Zinc Lactate, zinc lactate]", "values": [
      {"measurement": "VSC (ppb)", "setting": "[3]; headspace VSC, whole saliva with tryptophan 0.14%, serine 0.42% where present, overnight at 37° C.", "value": 109.25, "unit": "ppb"},
      {"measurement": "Indole (ppm)", "setting": "[4]; zinc lactate 0.09%", "value": 9.99, "unit": "ppm"},
      {"measurement": "Indole (ppm)", "setting": "[4]; zinc lactate 0.16%", "value": 5.09, "unit": "ppm"},
      {"measurement": "Indole (ppm)", "setting": "[4]; zinc lactate 0.23%", "value": 4.71, "unit": "ppm"}
    ]},
    {"compound": "N[C@@H](Cc1ccc(O)cc1)C(=O)O", "note": "[Tyrosine, tyrosine]", "values": [
      {"measurement": "VSC Reduction (%)", "setting": "[1]", "value": 0.06, "unit": "%"}
    ]},
    {"compound": "NCC(=O)O", "note": "[Glycine, glycine]", "values": [
      {"measurement": "VSC Reduction (%)", "setting": "[1]", "value": 14, "unit": "%"}
    ]},
    {"compound": "O=C(O)[C@@H]1CCCN1", "note": "[Proline, proline]", "values": [
      {"measurement": "VSC Reduction (%)", "setting": "[1]", "value": 6.99, "unit": "%"}
    ]},
    {"compound": "N[C@@H](Cc1c[nH]cn1)C(=O)O", "note": "[Histidine, histidine]", "values": [
      {"measurement": "VSC Reduction (%)", "setting": "[1]", "value": 1.36, "unit": "%"}
    ]}
  ]
}
